Columns and labels:
[1] = molecular target: Casein Kinase 2 A1 kinase (Homo sapiens, UniProt P68400); assay: CK2A1 kinase assay (33P, TCA precipitation); type: biochemical
Description: (§1) Incubation mixtures employed for the Casein Kinase 2 A1 kinase assay contain Casecin Kinase 2 A1 kinase, a synthetic peptide substrate, ATP, ATP-γ-^33 P and a Hepes buffer containing Mg^2+, NaCl, DTT, and Brij-35. Reactions were incubated for 60 minutes at 30° C. and stopped by the addition of trichloroacetic acid (TCA) to a final concentration 8%. TCA precipitates were collected onto GF/C unifilter plates using a Filtermate universal harvester and the filters are quantitated using a TopCount 96/384-well liquid scintillation counter. Dose response curves were generated to determine the concentration required to inhibit 50% of kinase activity (IC50). Compounds were dissolved at 10 mM in dimethyl sulfoxide (DMSO) and evaluated at ten concentrations, each in duplicate. The final concentration of DMSO in the assay is 1.7%. IC50 values were derived by non-linear regression.

[2] = molecular target: Casein Kinase 2 A2 kinase (Homo sapiens, UniProt P19784); assay: CK2A2 kinase assay (33P, TCA precipitation); type: biochemical
Sequence of Casein Kinase 2 A2 kinase (P19784 whole entry): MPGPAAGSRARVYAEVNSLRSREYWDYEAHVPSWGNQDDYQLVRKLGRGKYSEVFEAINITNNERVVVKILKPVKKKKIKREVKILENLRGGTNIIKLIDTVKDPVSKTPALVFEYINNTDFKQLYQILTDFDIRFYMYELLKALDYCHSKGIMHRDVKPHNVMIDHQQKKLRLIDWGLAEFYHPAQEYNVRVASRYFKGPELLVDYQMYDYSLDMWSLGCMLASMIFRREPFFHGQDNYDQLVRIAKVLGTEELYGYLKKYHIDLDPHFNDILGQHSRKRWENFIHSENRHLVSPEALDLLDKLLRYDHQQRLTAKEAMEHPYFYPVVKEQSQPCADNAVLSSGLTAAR
Description: as §1, with “A2” for “A1”, “Casein” for “Casecin”, “ATP-γ^33P” for “ATP-γ-^33 P”, “Mg^++,” for “Mg^2+,”, “(IC^50).” for “(IC50).”

Sequence of Casein Kinase 2 A1 kinase (P68400 whole entry): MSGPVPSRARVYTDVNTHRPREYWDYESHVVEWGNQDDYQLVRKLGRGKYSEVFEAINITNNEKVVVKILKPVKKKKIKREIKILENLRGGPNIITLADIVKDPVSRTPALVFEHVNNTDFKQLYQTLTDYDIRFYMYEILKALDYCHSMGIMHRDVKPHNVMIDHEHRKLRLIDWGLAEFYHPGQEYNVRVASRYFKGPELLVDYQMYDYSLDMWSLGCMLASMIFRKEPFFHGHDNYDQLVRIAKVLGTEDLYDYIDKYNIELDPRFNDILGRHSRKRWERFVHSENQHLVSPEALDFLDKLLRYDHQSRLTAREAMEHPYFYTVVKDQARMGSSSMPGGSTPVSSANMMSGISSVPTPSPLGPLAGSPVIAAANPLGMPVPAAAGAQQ

SMILES | IC50 [1] | IC50 [2]
c1ccc(C2CCN(c3nc(Nc4cc(C5CC5)n[nH]4)c4cccn4n3)C2)cc1 (centres unmarked) [Example 184, N-(3-cyclopropyl-1H-pyrazol-5-yl)-2-(3-phenylpyrrolidin-1-yl)pyrrolo[1,2-f][1,2,4]triazin-4-amine] | 177 nM | 14 nM
Cc1cc(Nc2nc(N3CCC(c4ccccc4)C3)nn3cccc23)[nH]n1 (centres unmarked) [Example 186, N-(5-methyl-1H-pyrazol-3-yl)-2-(3-phenylpyrrolidin-1-yl)pyrrolo[1,2-f][1,2,4]triazin-4-amine] | 294 nM | 39 nM
c1ccc([C@H]2C[C@@H]2c2cc(Nc3nc(N4CCC(c5cccnc5)C4)nn4cccc34)[nH]n2)cc1 (stereo partly drawn) [Example 197, N-(3-((1S,2S)-2-phenylcyclopropyl)-1H-pyrazol-5-yl)-2-(3-(pyridin-3-yl)pyrrolidin-1-yl)pyrrolo[1,2-f][1,2,4]triazin-4-amine] | 11300 nM | 1020 nM
Cc1cc(Nc2nc(N3CCC(CC(=O)O)C3)nn3cccc23)[nH]n1 (centres unmarked) [Example 199, 2-(1-(4-(3-methyl-1H-pyrazol-5-ylamino)pyrrolo[1,2-f][1,2,4]triazin-2-yl)pyrrolidin-3-yl)acetic acid] | 2350 nM | 379 nM

Second part, the compound after the results:

IC50 [1] | IC50 [2] | SMILES
159 nM | 25 nM | Cc1cc(Nc2nc(N3Cc4ccccc4C3)nn3cccc23)[nH]n1 [Example 201, 2-(isoindolin-2-yl)-N-(3-methyl-1,2-f][1,2,4]triazin-4-amine]
243 nM | 56 nM | Cc1cc(Nc2nc(N3CCC(c4ccncc4)CC3)nn3cccc23)[nH]n1 [Example 203, N-(3-methyl-1H-pyrazol-5-yl)-2-(4-(pyridin-4-yl)piperidin-1-yl)pyrrolo[1,2-f][1,2,4]triazin-4-amine]
1860 nM | 228 nM | Cc1cc(Nc2nc(N3CCCC(c4ccccc4)C3)nn3cccc23)[nH]n1 (centres unmarked) [Example 204, N-(3-methyl-1H-pyrazol-5-yl)-2-(3-phenylpiperidin-1-yl)pyrrolo[1,2-f][1,2,4]triazin-4-amine]
6070 nM | 1100 nM | Cc1cc(Nc2nc(N3CCCC3c3cccnc3)nn3cccc23)[nH]n1 (centres unmarked) [Example 209, N-(3-methyl-1H-pyrazol-5-yl)-2-(2-(pyridin-3-yl)pyrrolidin-1-yl)pyrrolo[1,2-f][1,2,4]triazin-4-amine]
1380 nM | 99 nM | COc1ccc(C2CCN(c3nc(Nc4cc(C)n[nH]4)c4cccn4n3)C2)cn1 (centres unmarked) [Example 212, (3-(6-Methoxypyridin-3-yl)pyrrolidin-1-yl)-N-(3-methyl-1H-pyrazol-5-yl)pyrrolo[1,2-f][1,2,4]triazin-4-amine]
349 nM | 43 nM | COc1ncccc1C1CCN(c2nc(Nc3cc(C)n[nH]3)c3cccn3n2)C1 (centres unmarked) [Example 213, 2-(3-(2-methoxypyridin-3-yl)pyrrolidin-1-yl)-N-(3-methyl-1H-pyrazol-5-yl)pyrrolo[1,2-f][1,2,4]triazin-4-amine]

— patent US7531539B2, “Pyrrolotriazine kinase inhibitors” (Bristol-Myers Squibb Company, priority 2006, dated 2009)
